Measured values from patent US6306860A, “2,5-pyridinedicarboxylic acid derivatives” (Dong Wha Pharm. Inc. Co., Ltd., priority 1998, dated 2001).
Counter-ions that a name gives are not always drawn.

Tests used:
[1] = biological target: T1, HBV polymerase (Hepatitis B virus genotype D subtype ayw, UniProt P03156); assay: Inhibitory activities against HBV polymerase (reverse transcriptase activity) in vitro; format: biochemical; settings: read-out: Inhibitory activity of HBV-RT (%); for inhibition at 0.01 µg/mL: 0.01 μg/ml; for inhibition at 0.1 µg/mL: 0.1 μg/ml; for inhibition at 1 µg/mL: 1 μg/ml
T1 construct: made in house; host or cells: E. coli
T1 sequence (P03156 whole entry): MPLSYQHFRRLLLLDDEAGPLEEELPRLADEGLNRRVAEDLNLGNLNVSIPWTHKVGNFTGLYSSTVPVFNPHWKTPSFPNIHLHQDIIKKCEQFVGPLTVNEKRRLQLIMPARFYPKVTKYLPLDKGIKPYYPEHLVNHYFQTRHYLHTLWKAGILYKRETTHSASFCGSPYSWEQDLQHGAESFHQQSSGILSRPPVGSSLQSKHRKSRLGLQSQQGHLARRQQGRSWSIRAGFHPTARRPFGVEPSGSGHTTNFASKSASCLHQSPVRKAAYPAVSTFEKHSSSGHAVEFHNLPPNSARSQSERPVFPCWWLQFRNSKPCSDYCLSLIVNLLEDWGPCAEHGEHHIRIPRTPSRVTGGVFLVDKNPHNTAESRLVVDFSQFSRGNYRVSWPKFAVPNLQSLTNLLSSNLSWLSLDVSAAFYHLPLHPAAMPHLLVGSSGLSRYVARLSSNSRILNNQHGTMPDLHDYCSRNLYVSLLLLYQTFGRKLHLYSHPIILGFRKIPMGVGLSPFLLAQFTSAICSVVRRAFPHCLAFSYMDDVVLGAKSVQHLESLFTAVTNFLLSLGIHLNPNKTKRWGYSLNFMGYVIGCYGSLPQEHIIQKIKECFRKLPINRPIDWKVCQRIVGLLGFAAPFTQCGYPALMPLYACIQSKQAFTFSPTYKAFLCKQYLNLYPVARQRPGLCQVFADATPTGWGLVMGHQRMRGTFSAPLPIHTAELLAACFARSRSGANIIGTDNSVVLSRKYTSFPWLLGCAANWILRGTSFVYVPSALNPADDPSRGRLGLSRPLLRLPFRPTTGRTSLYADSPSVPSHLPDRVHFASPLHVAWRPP
Text: Experiment 1:Inhibitory Activities Against HBV Polymerase in vitro
Recently, the inventors of the present invention have produced a recombinant HBV polymerase that is expressed from E.coli transformant, measured its enzyme activity and filed patent applications threrof [Korean Pat. Appl. Nos. 94-3918 and 96-33998].
The inventors have also established a method of measuring the reverse transcriptase activity of HBV polymerase in vitro. The fundamental principle is the same as the ELISA method, and after reacting the substrate with biotin- and DIG-modified nucleotide, a method of recognizing the polymerized substrate as anti-DIG antibody with peroxidase was used.
20 μl of HBV polymerase, 20 μl of reaction mixture and 20 μl of test compound was mixed and reacted at 14° C.~30° C. for 18~24 hours. Then, the inhibitory effect of the test compound against reverse transcriptase activity in the HBV polymerase was examined, compared with the results of control tests without the test compound.

[2] = biological target: T2, HIV reverse transcriptase (Human immunodeficiency virus type 1 group M subtype B, UniProt P04585); assay: In vitro inhibition test against HIV reverse transcriptase; format: biochemical; settings: read-out: Inhibitory activity of HIV-RT (%); for inhibition at 0.1 µg/mL: 0.1 μg/ml; for inhibition at 1 µg/mL: 1 μg/ml
T2 construct: purchased Boehringer Mannheim
Protocol: Experiment 2: The in vitro Inhibition Test Against HIV Reverse Transcriptase
The inhibitory activity in vitro was measured using a non-radioactive reverse transcriptase assay Kit (Boehringer Mannheim).
At first, 20 μl(40 ng) of HIV-RT was added to the wells, coated with streptavidin and with the addition of 20 μl reaction mixture containing template/primer hybrid poly(A)/oligo(dT)15 and DIG-(digoxigenin)-dUTP, biotin-dUTP and TTP, 20 μl of test compound was added and reacted at 37° C. for 1 hour. The control without test compound was used for the comparison of related activity. Since DNA containing nucleotide labeled with digoxigenin and biotine was prepared by the action of HIV-RT, it was combined with streptavidin coated at the bottom of the wells. After the reaction was completed, remaining impurities were removed by washing each well with 250 μl buffer solution (pH 7.0) for 30 seconds 5 times and with the addition of 200 μl anti-DIG-POD antibody, the mixture was reacted at 37° C. for 1 hour. For the removal of remaining impurities again, the reacting solution was washed with a buffer solution and with the addition of 200 μl ABTS™ each, a substrate of POD(peroxidase), the solution was reacted at room temperature for 30 minutes. The absorbance was read by ELISA reader at 405 nm for the assay of reverse transcriptase activity and its inhibition activity.

| SMILES | inhibition at 0.01 µg/mL [1] | inhibition at 0.1 µg/mL [1] | inhibition at 1 µg/mL [1] | inhibition at 0.1 µg/mL [2] | inhibition at 1 µg/mL [2] |
| --- | --- | --- | --- | --- | --- |
| CC(C)Nc1cccnc1N1CCN(C(=O)c2ccc(C(=O)NCCN3CCOCC3)cn2)CC1 [Exam. 59, 2-[1-[3-(isopropylamino)-2-pyridyl]piperazin-4-yl-carbonyl]-5-[N-[2-(morpholin-4-yl)ethyl]carbamoyl]pyridine] | 49% | 60% | 70% | 15% | 61% |
| Nc1cccnc1N1CCN(C(=O)c2ccc(C(=O)NC3CCOC3=O)cn2)CC1 (stereo not shown) [Exam. 56, 2-[1-(3-amino-2-pyridyl)piperazin-4-yl-carbonyl]-5-[N-(tetrahydro-2-furanon-3-yl)carbamoyl]pyridine] | 65% | 70% | 82% | 45% | 74% |
| O=C(NCc1ccco1)c1ccc(C(=O)N2CCN(CCO)CC2)nc1 [Exam. 103, N-(2-Furylmethyl)-6-[1-(2-hydroxyethyl)piperazin-4-yl-carbonyl]nicotinamide.HCl] | 20% | 54% | 72% | 65% | 80% |
| CC(C)Nc1cccnc1N1CCN(C(=O)c2ccc(C(=O)NCCCN3CCCC3=O)cn2)CC1 [Exam. 58, 2-[1-[3-(isopropylamino)-2-pyridyl]piperazin-4-yl-carbonyl]-5-[N-[3-(2-pyrrolidinon-1-yl)propyl]carbamoyl]pyridine.HCl] | 63% | 72% | 84% | 45% | 63% |
| COCCNC(=O)c1ccc(C(=O)N2CCN(c3ncccc3NC(C)C)CC2)nc1 [Exam. 39, 2-[1-[3-(isopropylamino)-2-pyridyl]piperazin-4-yl-carbonyl]-5-[N-(2-methoxyethyl)carbamoyl]pyridine] | 60% | 68% | 80% | 65% | 72% |
| CC(C)NC(=O)c1ccc(C(=O)N2CCN(c3ncccc3N)CC2)nc1 [Exam. 27, 2-[1-(3-amino-2-pyridyl)piperazin-4-yl-carbonyl]-5-(N-isopropylcarbamoyl)pyridine] | 43% | 62% | 79% | 54% | 70% |
| Cc1cc(NC(=O)c2ccc(C(=O)N3CCN(c4ncccc4NC(C)C)CC3)nc2)n[nH]1 [Exam. 66, 6-[1-[3-(isopropylamino)-2-pyridyl]piperazin-4-yl-carbonyl]-N-(5-methyl-1H-pyrazol-3-yl)nicotinamide] | 20% | 53% | 70% | 52% | 76% |
| CC(C)Nc1cccnc1N1CCN(C(=O)c2ccc(C(=O)NC(CO)CO)cn2)CC1 [Exam. 13, 5-[N-[Bis(hydroxymethyl)methyl]carbamoyl]-2-[1-[3-(isopropylamino)-2-pyridyl]piperazin-4-yl-carbonyl]pyridine] | 51% | 56% | 72% | 61% | 80% |
| CC(C)NC(=O)c1ccc(C(=O)N2CCN(CCO)CC2)nc1 [Exam. 87, 6-[1-(2-hydroxyethyl)piperazin-4-yl-carbonyl]-N-isopropylnicotinamide.HCl] | 52% | 58% | 75% | 60% | 81% |
| CC(C)Nc1cccnc1N1CCN(C(=O)c2ccc(C(=O)NCCc3c[nH]cn3)cn2)CC1 [Exam. 80, N-[2-(1H-imidazol4-yl)ethyl]-6-[1-[3-(isopropylamino)-2-pyridyl]piperazin-4-yl-carbonyl]nicotinamide] | 52% | 61% | 70% | 21% | 48% |
| Cc1csc(NC(=O)c2ccc(C(=O)N3CCN(c4ncccc4NC(C)C)CC3)nc2)n1 [Exam. 68, 6-[1-[3-(isopropylamino)-2-pyridyl)piperazin-4-yl-carbonyl]-N-(4-methyl-1,3-thiazol-2-yl)nicotinamide] | 30% | 69% | 81% | 53% | 70% |
| CC(C)Nc1cccnc1N1CCN(C(=O)c2ccc(C(=O)NCc3ccccn3)cn2)CC1 [Exam. 73, 6-[1-[3-(isopropylamino)-2-pyridyl]piperazin-4-yl-carbonyl]-N-(2-pyridylmethyl)nicotinamide.HCl] | 53% | 62% | 77% | 57% | 73% |
| COCCN(CCOC)C(=O)c1ccc(C(=O)N2CCN(c3ncccc3NC(C)C)CC2)nc1 [Exam. 42, 5-[N,N-bis(2-methoxyethyl)carbamoyl]-2-[1-[3-(isopropylamino)-2-pyridyl]piperazin-4-yl-carbonyl]pyridine.HCl] | 15% | 52% | 70% | 20% | 54% |
| COC(CNC(=O)c1ccc(C(=O)N2CCN(c3ncccc3NC(C)C)CC2)nc1)OC [Exam. 51, 5-[N-(2,2-dimethoxyethyl)carbamoyl]-2-[1-[3-(isopropylamino)-2-pyridyl]piperazin-4-yl-carbonyl]pyridine] | 57% | 65% | 87% | 30% | 51% |
| O=C(NCCO)c1ccc(C(=O)N2CCN(CCO)CC2)nc1 [Exam. 93, N-(2-hydroxyethyl)-6-[1-(2-hydroxyethyl)piperazin-4-yl-carbonyl]nicotinamide] | 30% | 59% | 73% | 25% | 50% |
| CC(C)Nc1cccnc1N1CCN(C(=O)c2ccc(C(=O)NCCc3cccs3)cn2)CC1 [Exam. 81, 6-[1-[3-(isopropylamino)-2-pyridyl]piperazin-4-yl-carbonyl]-N-[2-(2-thienyl)ethyl]nicotinamide] | 44% | 60% | 80% | 54% | 75% |
| CC[C@H](CO)NC(=O)c1ccc(C(=O)N2CCN(CCO)CC2)nc1 [Exam. 94, 6-[1-(2-hydroxyethyl)piperazin-4-yl-carbonyl]-N-[(1R)-1-(hydroxymethyl)propyl]nicotinamide.HCl] | 20% | 51% | 72% | 30% | 62% |
| COCCCNC(=O)c1ccc(C(=O)N2CCN(c3ncccc3NC(C)C)CC2)nc1 [Exam. 45, 2-[1-[3-(isopropylamino)-2-pyridyl]piperazin-4-yl-carbonyl]-5-[N-(3-methoxypropyl)carbamoyl]pyridine] | 28% | 53% | 63% | 47% | 68% |
| CC(C)CNc1cccnc1N1CCN(C(=O)c2ccc(C(=O)NCCCn3ccnc3)cn2)CC1 [Exam. 84, N-[3-(1H-imidazol-1-yl)propyl]-6-[1-[3-(isobutylamino)-2-pyridyl]piperazin-4-yl-carbonyl]nicotinamide] | 60% | 72% | 88% | 50% | 62% |
| CC(C)Nc1cccnc1N1CCN(C(=O)c2ccc(C(=O)NC3CCSC3=O)cn2)CC1 (stereo not shown) [Exam. 57, 2-[1-[3-(isopropylamino)-2-pyridyl]piperazin-4-yl-carbonyl]-5-[N-(tetrahydro-2-thiophenon-3-yl)carbamoyl]pyridine] | 23% | 53% | 72% | 61% | 70% |
